Article PMC10384657 (Virus Research, 2023)

These compounds were tested on MPER25c peptide (S2 membrane proximal region derived). Settings: not given.
Assay type: binding, SARS-CoV-2

SMILES | fold lower binding activity to immobilized MPER25c than PN19
CC[C@H](C)[C@H](NC(=O)[C@H](CCC(N)=O)NC(=O)[C@H](CC(C)C)NC(=O)[C@H](C)NC(=O)[C@H](C)NC(=O)CNC(=O)[C@H](C)NC(=O)CNC(=O)[C@H](Cc1ccccc1)NC(C)=O)C(=O)N1CCC[C@H]1C(=O)N[C@@H](Cc1ccccc1)C(=O)N[C@@H](C)C(=O)N[C@@H](CCSC)C(=O)N[C@@H](CCC(N)=O)C(=O)N[C@@H](CCSC)C(=O)N[C@@H](C)C(=O)N[C@@H](Cc1ccc(O)cc1)C(=O)N[C@@H](CCCNC(=N)N)C(=O)N[C@@H](C)C(N)=O [PN19F→A906] | 2-3 fold
CC[C@H](C)[C@H](NC(=O)[C@H](CCC(N)=O)NC(=O)[C@H](CC(C)C)NC(=O)[C@H](C)NC(=O)[C@H](C)NC(=O)CNC(=O)[C@H](C)NC(=O)CNC(=O)[C@H](Cc1ccccc1)NC(C)=O)C(=O)N1CCC[C@H]1C(=O)N[C@@H](C)C(=O)N[C@@H](C)C(=O)N[C@@H](CCSC)C(=O)N[C@@H](CCC(N)=O)C(=O)N[C@@H](CCSC)C(=O)N[C@@H](C)C(=O)N[C@@H](Cc1ccc(O)cc1)C(=O)N[C@@H](CCCNC(=N)N)C(=O)N[C@@H](Cc1ccccc1)C(N)=O [PN19F→A898] | 2-3 fold

What follows are compounds tested on Vero E6 cells. Settings: 72 h.

SMILES | CC50 (mean ± SD)
CC[C@H](C)[C@H](NC(=O)[C@H](CCC(N)=O)NC(=O)[C@H](CC(C)C)NC(=O)[C@H](C)NC(=O)[C@H](C)NC(=O)CNC(=O)[C@H](C)NC(=O)CNC(=O)[C@H](Cc1ccccc1)NC(C)=O)C(=O)N1CCC[C@H]1C(=O)N[C@@H](Cc1ccccc1)C(=O)N[C@@H](C)C(=O)N[C@@H](CCSC)C(=O)N[C@@H](CCC(N)=O)C(=O)N[C@@H](CCSC)C(=O)N[C@@H](C)C(=O)N[C@@H](Cc1ccc(O)cc1)C(=O)N[C@@H](CCCNC(=N)N)C(=O)N[C@@H](C)C(N)=O [PN19F→A906] | > 100 µM
CC[C@H](C)[C@H](NC(=O)[C@H](CCC(N)=O)NC(=O)[C@H](CC(C)C)NC(=O)[C@H](C)NC(=O)[C@H](C)NC(=O)CNC(=O)[C@H](C)NC(=O)CNC(=O)[C@H](Cc1ccccc1)NC(C)=O)C(=O)N1CCC[C@H]1C(=O)N[C@@H](Cc1ccccc1)C(=O)N[C@@H](C)C(=O)N[C@@H](CCSC)C(=O)N[C@@H](CCC(N)=O)C(=O)N[C@@H](CCSC)C(=O)N[C@@H](C)C(=O)N[C@@H](Cc1ccc(O)cc1)C(=O)N[C@@H](C)C(=O)N[C@@H](Cc1ccccc1)C(N)=O [PN19R→A905] | > 100 µM
CC[C@H](C)[C@H](NC(=O)[C@H](CCC(N)=O)NC(=O)[C@H](CC(C)C)NC(=O)[C@H](C)NC(=O)[C@H](C)NC(=O)CNC(=O)[C@H](C)NC(=O)CNC(=O)[C@H](Cc1ccccc1)NC(=O)[C@@H](NC(=O)[C@H](Cc1c[nH]c2ccccc12)NC(C)=O)[C@@H](C)O)C(=O)N1CCC[C@H]1C(=O)N[C@@H](Cc1ccccc1)C(=O)N[C@@H](C)C(=O)N[C@@H](CCSC)C(=O)N[C@@H](CCC(N)=O)C(=O)N[C@@H](CCSC)C(=O)N[C@@H](C)C(=O)N[C@@H](Cc1ccc(O)cc1)C(N)=O [PNC19] | > 100 µM
CSCC[C@H](NC(=O)[C@H](C)NC(=O)[C@H](Cc1ccccc1)NC(C)=O)C(=O)N[C@@H](CCC(N)=O)C(=O)N[C@@H](CCSC)C(=O)N[C@@H](C)C(=O)N[C@@H](Cc1ccc(O)cc1)C(=O)N[C@@H](CCCNC(=N)N)C(=O)N[C@@H](Cc1ccccc1)C(N)=O [PN9] | > 100 µM
CC[C@H](C)[C@H](NC(=O)[C@H](CCC(N)=O)NC(=O)[C@H](CC(C)C)NC(=O)[C@H](C)NC(=O)[C@H](C)NC(=O)CNC(=O)[C@H](C)NC(C)=O)C(=O)N1CCC[C@H]1C(=O)N[C@@H](Cc1ccccc1)C(=O)N[C@@H](C)C(=O)N[C@@H](CCSC)C(=O)N[C@@H](CCC(N)=O)C(=O)N[C@@H](CCSC)C(=O)N[C@@H](C)C(=O)N[C@@H](Cc1ccc(O)cc1)C(=O)N[C@@H](CCCNC(=N)N)C(=O)N[C@@H](Cc1ccccc1)C(N)=O [PN17] | > 100 µM
CC[C@H](C)[C@H](NC(=O)[C@H](C)NC(=O)[C@H](CC(C)C)NC(=O)[C@H](C)NC(=O)[C@H](C)NC(=O)CNC(=O)[C@H](C)NC(=O)CNC(=O)[C@H](Cc1ccccc1)NC(C)=O)C(=O)N1CCC[C@H]1C(=O)N[C@@H](Cc1ccccc1)C(=O)N[C@@H](C)C(=O)N[C@@H](CCSC)C(=O)N[C@@H](CCC(N)=O)C(=O)N[C@@H](CCSC)C(=O)N[C@@H](C)C(=O)N[C@@H](Cc1ccc(O)cc1)C(=O)N[C@@H](CCCNC(=N)N)C(=O)N[C@@H](Cc1ccccc1)C(N)=O [PN19Q→A895] | >100 µM
CC[C@H](C)[C@H](NC(=O)[C@H](CCC(N)=O)NC(=O)[C@H](CC(C)C)NC(=O)[C@H](C)NC(=O)[C@H](C)NC(=O)CNC(=O)[C@H](C)NC(=O)CNC(=O)[C@H](Cc1ccccc1)NC(C)=O)C(=O)N[C@@H](C)C(=O)N[C@@H](Cc1ccccc1)C(=O)N[C@@H](C)C(=O)N[C@@H](CCSC)C(=O)N[C@@H](CCC(N)=O)C(=O)N[C@@H](CCSC)C(=O)N[C@@H](C)C(=O)N[C@@H](Cc1ccc(O)cc1)C(=O)N[C@@H](CCCNC(=N)N)C(=O)N[C@@H](Cc1ccccc1)C(N)=O [PN19P→A897] | > 100 µM
CSCC[C@H](NC(=O)[C@H](C)NC(=O)[C@H](Cc1ccccc1)NC(=O)[C@@H]1CCCN1C(=O)[C@H](C)NC(=O)[C@H](CCC(N)=O)NC(=O)[C@H](CC(C)C)NC(=O)[C@H](C)NC(=O)[C@H](C)NC(=O)CNC(=O)[C@H](C)NC(=O)CNC(=O)[C@H](Cc1ccccc1)NC(C)=O)C(=O)N[C@@H](CCC(N)=O)C(=O)N[C@@H](CCSC)C(=O)N[C@@H](C)C(=O)N[C@@H](Cc1ccc(O)cc1)C(=O)N[C@@H](CCCNC(=N)N)C(=O)N[C@@H](Cc1ccccc1)C(N)=O [PN19I→A896] | > 100 µM
CC[C@H](C)[C@H](NC(=O)[C@H](CCC(N)=O)NC(=O)[C@H](CC(C)C)NC(=O)[C@H](C)NC(=O)[C@H](C)NC(=O)CNC(=O)[C@H](C)NC(=O)CNC(=O)[C@H](Cc1ccccc1)NC(C)=O)C(=O)N1CCC[C@H]1C(=O)N[C@@H](Cc1ccccc1)C(=O)N[C@@H](C)C(=O)N[C@@H](C)C(=O)N[C@@H](CCC(N)=O)C(=O)N[C@@H](CCSC)C(=O)N[C@@H](C)C(=O)N[C@@H](Cc1ccc(O)cc1)C(=O)N[C@@H](CCCNC(=N)N)C(=O)N[C@@H](Cc1ccccc1)C(N)=O [PN19M→A900] | > 100 µM
CC[C@H](C)[C@H](NC(=O)[C@H](CCC(N)=O)NC(=O)[C@H](CC(C)C)NC(=O)[C@H](C)NC(=O)[C@H](C)NC(=O)CNC(=O)[C@H](C)NC(=O)CNC(=O)[C@H](Cc1ccccc1)NC(C)=O)C(=O)N1CCC[C@H]1C(=O)N[C@@H](Cc1ccccc1)C(=O)N[C@@H](C)C(=O)N[C@@H](CCSC)C(=O)N[C@@H](CCC(N)=O)C(=O)N[C@@H](CCSC)C(N)=O [PNC15] | > 100 µM
CC[C@H](C)[C@H](NC(=O)[C@H](CCC(N)=O)NC(=O)[C@H](CC(C)C)NC(=O)[C@H](C)NC(=O)[C@H](C)NC(=O)CNC(=O)[C@H](C)NC(=O)CNC(=O)[C@H](Cc1ccccc1)NC(C)=O)C(=O)N1CCC[C@H]1C(=O)N[C@@H](Cc1ccccc1)C(=O)N[C@@H](C)C(=O)N[C@@H](CCSC)C(=O)N[C@@H](CCC(N)=O)C(=O)N[C@@H](C)C(=O)N[C@@H](C)C(=O)N[C@@H](Cc1ccc(O)cc1)C(=O)N[C@@H](CCCNC(=N)N)C(=O)N[C@@H](Cc1ccccc1)C(N)=O [PN19M→A902] | > 100 µM
CC[C@H](C)[C@H](NC(=O)[C@H](CCC(N)=O)NC(=O)[C@H](C)NC(=O)[C@H](C)NC(=O)[C@H](C)NC(=O)CNC(=O)[C@H](C)NC(=O)CNC(=O)[C@H](Cc1ccccc1)NC(C)=O)C(=O)N1CCC[C@H]1C(=O)N[C@@H](Cc1ccccc1)C(=O)N[C@@H](C)C(=O)N[C@@H](CCSC)C(=O)N[C@@H](CCC(N)=O)C(=O)N[C@@H](CCSC)C(=O)N[C@@H](C)C(=O)N[C@@H](Cc1ccc(O)cc1)C(=O)N[C@@H](CCCNC(=N)N)C(=O)N[C@@H](Cc1ccccc1)C(N)=O [PN19L→A894] | > 100 µM
CC[C@H](C)[C@H](NC(=O)[C@H](CCC(N)=O)NC(=O)[C@H](CC(C)C)NC(=O)[C@H](C)NC(=O)[C@H](C)NC(=O)CNC(=O)[C@H](C)NC(=O)CNC(=O)[C@H](Cc1ccccc1)NC(=O)[C@@H](NC(=O)[C@H](Cc1c[nH]c2ccccc12)NC(=O)CNC(=O)[C@H](CO)NC(C)=O)[C@@H](C)O)C(=O)N1CCC[C@H]1C(=O)N[C@@H](Cc1ccccc1)C(=O)N[C@@H](C)C(=O)N[C@@H](CCSC)C(=O)N[C@@H](CCC(N)=O)C(=O)N[C@@H](CCSC)C(N)=O [PC19] | > 100 µM
CC[C@H](C)[C@H](NC(=O)[C@H](CCC(N)=O)NC(=O)[C@H](CC(C)C)NC(=O)[C@H](C)NC(=O)[C@H](C)NC(=O)CNC(=O)[C@H](C)NC(=O)CNC(=O)[C@H](Cc1ccccc1)NC(=O)[C@@H](NC(=O)[C@H](Cc1c[nH]c2ccccc12)NC(=O)CNC(=O)[C@H](CO)NC(C)=O)[C@@H](C)O)C(=O)N1CCC[C@H]1C(=O)N[C@@H](Cc1ccccc1)C(=O)N[C@@H](C)C(=O)N[C@@H](CCSC)C(N)=O [PC17] | > 100 µM
CC[C@H](C)[C@H](NC(=O)[C@H](CCC(N)=O)NC(=O)[C@H](CC(C)C)NC(=O)[C@H](C)NC(=O)[C@H](C)NC(=O)CNC(=O)[C@H](C)NC(=O)CNC(=O)[C@H](Cc1ccccc1)NC(C)=O)C(=O)N1CCC[C@H]1C(=O)N[C@@H](C)C(=O)N[C@@H](C)C(=O)N[C@@H](CCSC)C(=O)N[C@@H](CCC(N)=O)C(=O)N[C@@H](CCSC)C(=O)N[C@@H](C)C(=O)N[C@@H](Cc1ccc(O)cc1)C(=O)N[C@@H](CCCNC(=N)N)C(=O)N[C@@H](Cc1ccccc1)C(N)=O [PN19F→A898] | > 100 µM
CC[C@H](C)[C@H](NC(=O)[C@H](CCC(N)=O)NC(=O)[C@H](CC(C)C)NC(C)=O)C(=O)N1CCC[C@H]1C(=O)N[C@@H](Cc1ccccc1)C(=O)N[C@@H](C)C(=O)N[C@@H](CCSC)C(=O)N[C@@H](CCC(N)=O)C(=O)N[C@@H](CCSC)C(=O)N[C@@H](C)C(=O)N[C@@H](Cc1ccc(O)cc1)C(=O)N[C@@H](CCCNC(=N)N)C(=O)N[C@@H](Cc1ccccc1)C(N)=O [PN13] | > 100 µM
CC[C@H](C)[C@H](NC(=O)[C@H](CCC(N)=O)NC(=O)[C@H](CC(C)C)NC(=O)[C@H](C)NC(=O)[C@H](C)NC(=O)CNC(=O)[C@H](C)NC(=O)CNC(=O)[C@H](Cc1ccccc1)NC(C)=O)C(=O)N1CCC[C@H]1C(=O)N[C@@H](Cc1ccccc1)C(=O)N[C@@H](C)C(=O)N[C@@H](CCSC)C(=O)N[C@@H](C)C(=O)N[C@@H](CCSC)C(=O)N[C@@H](C)C(=O)N[C@@H](Cc1ccc(O)cc1)C(=O)N[C@@H](CCCNC(=N)N)C(=O)N[C@@H](Cc1ccccc1)C(N)=O [PN19Q→A901] | > 100 µM
CC[C@H](C)[C@H](NC(=O)[C@H](CCC(N)=O)NC(=O)[C@H](CC(C)C)NC(=O)[C@H](C)NC(=O)[C@H](C)NC(=O)CNC(=O)[C@H](C)NC(=O)CNC(=O)[C@H](C)NC(C)=O)C(=O)N1CCC[C@H]1C(=O)N[C@@H](Cc1ccccc1)C(=O)N[C@@H](C)C(=O)N[C@@H](CCSC)C(=O)N[C@@H](CCC(N)=O)C(=O)N[C@@H](CCSC)C(=O)N[C@@H](C)C(=O)N[C@@H](Cc1ccc(O)cc1)C(=O)N[C@@H](CCCNC(=N)N)C(=O)N[C@@H](Cc1ccccc1)C(N)=O [PN19F→A888] | > 100 µM
